Assay results reported in US20170233413A1, “SUBSTITUTED ANNULATED PYRIMIDINES AND USE THEREOF” (Bayer Pharma Aktiengesellschaft, priority 2014, published 2017).

Key:
[1] = biological target: T1, human phosphodiesterase 5 (PDE 5) (Homo sapiens, UniProt O76074); experiment: Inhibition of human phosphodiesterase 5 (PDE 5); format: biochemical; settings: PDE 5 preparation from human platelets; in some cases means of individual determinations
T1 construct: PDE 5 preparations are obtained from human platelets by disruption; from tissue; host or cells: human platelets
Procedure, shortened: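 IC50 comes from percent inhibition over a 1:3 series with final levels of 4 to 0.0018 μM. Reaction: tritiated cGMP tracer (0.025 μCi) with platelet-derived, Mono Q-purified enzyme, 1 h at room temperature in Tris pH 7.5, under 70% turnover. Read-out by scintillation proximity beads.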

[2] = biological target: T2, recombinant guanylate cyclase reporter cell line (Rattus norvegicus, UniProt P19686+P20595); experiment: Effect on a recombinant guanylate cyclase reporter cell line; format: cell-based; settings: MEC = minimum effective concentration; in some cases means of individual determinations
T2 construct: expressed in transfected cells
T2 sequence (P19686 1-690): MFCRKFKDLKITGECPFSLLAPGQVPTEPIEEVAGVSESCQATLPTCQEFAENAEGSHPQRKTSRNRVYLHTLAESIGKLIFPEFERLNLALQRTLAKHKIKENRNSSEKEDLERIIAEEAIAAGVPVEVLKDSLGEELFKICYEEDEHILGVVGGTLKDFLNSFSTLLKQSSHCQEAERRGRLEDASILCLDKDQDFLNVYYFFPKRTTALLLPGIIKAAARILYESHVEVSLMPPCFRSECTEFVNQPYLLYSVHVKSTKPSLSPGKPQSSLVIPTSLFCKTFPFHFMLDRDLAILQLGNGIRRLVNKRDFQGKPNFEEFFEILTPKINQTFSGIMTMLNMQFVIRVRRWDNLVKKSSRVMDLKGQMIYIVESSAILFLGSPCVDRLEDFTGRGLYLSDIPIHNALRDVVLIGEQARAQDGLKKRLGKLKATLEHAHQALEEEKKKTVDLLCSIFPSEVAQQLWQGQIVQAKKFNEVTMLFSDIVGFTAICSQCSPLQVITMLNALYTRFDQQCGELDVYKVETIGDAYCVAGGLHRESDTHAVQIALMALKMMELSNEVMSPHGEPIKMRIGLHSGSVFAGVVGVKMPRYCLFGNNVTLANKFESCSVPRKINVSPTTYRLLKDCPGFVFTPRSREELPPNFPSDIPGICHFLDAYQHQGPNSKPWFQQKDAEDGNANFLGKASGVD
T2 sequence (P20595 1-619): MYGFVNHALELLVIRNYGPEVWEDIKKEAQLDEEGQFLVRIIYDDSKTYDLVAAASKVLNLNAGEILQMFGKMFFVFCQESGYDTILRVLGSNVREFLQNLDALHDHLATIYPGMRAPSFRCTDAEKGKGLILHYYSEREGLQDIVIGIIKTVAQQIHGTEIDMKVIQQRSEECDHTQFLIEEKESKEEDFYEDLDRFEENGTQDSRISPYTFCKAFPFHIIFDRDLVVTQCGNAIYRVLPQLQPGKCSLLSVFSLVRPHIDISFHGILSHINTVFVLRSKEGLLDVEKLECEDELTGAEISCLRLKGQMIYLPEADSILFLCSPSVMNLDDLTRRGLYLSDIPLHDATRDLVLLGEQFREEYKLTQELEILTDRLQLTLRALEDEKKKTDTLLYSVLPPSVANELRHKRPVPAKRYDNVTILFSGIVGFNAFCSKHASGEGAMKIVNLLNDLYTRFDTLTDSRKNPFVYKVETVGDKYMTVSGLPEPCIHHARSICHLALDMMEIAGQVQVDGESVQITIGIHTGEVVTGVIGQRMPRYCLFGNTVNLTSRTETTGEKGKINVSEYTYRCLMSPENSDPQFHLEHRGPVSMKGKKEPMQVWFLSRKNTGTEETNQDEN
Procedure, shortened: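 Values are reported as MEC, sometimes averaged over individual determinations. The test system is a reporter cell line expressing recombinant rat guanylate cyclase.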

CC1(C)C(=O)Nc2nc(-c3nn(Cc4ccccc4F)c4ncccc34)nc(C(=O)NCC3(O)CC3)c21 [Example 138, 2-[1-(2-fluorobenzyl)-1H-pyrazolo[3,4-b]pyridin-3-yl]-N-[(1-hydroxycyclopropyl)methyl]-5,5-dimethyl-6-oxo-6,7-dihydro-5H-pyrrolo[2,3-d]pyrimidine-4-carboxamide]
IC50 [1]: 21 nM | MEC [2]: 1 µM
